Test results: paper PMC9105233, “The Nitrogen Atom of Vitamin B6 Is Essential for the Catalysis of Radical Aminomutases” (International Journal of Molecular Sciences, 2022)

Biological target: T1, lysine 5,6-aminomutase (5,6-LAM) (Acetoanaerobium sticklandii, UniProt E3PRJ4+E3PRJ5)
T1 construct: gene kamD
Conditions: dAdoCbl, NH4-EPPS pH 8.5, reaction 4 min, PLP analogue replacing PLP

T1 sequence (E3PRJ5 whole entry): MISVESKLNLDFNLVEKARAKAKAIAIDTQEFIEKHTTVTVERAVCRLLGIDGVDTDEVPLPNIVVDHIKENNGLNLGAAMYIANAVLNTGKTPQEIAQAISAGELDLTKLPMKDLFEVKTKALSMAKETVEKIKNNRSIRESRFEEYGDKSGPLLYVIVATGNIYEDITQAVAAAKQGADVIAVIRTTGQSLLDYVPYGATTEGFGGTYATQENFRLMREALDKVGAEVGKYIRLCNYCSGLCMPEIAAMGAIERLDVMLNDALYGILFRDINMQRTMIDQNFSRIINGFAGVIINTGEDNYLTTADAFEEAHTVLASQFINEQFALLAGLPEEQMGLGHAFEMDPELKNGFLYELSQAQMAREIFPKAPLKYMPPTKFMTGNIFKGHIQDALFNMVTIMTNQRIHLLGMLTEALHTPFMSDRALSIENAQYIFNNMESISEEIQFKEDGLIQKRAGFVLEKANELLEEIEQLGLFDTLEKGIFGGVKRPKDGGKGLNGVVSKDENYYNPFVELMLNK
T1 sequence (E3PRJ4 whole entry): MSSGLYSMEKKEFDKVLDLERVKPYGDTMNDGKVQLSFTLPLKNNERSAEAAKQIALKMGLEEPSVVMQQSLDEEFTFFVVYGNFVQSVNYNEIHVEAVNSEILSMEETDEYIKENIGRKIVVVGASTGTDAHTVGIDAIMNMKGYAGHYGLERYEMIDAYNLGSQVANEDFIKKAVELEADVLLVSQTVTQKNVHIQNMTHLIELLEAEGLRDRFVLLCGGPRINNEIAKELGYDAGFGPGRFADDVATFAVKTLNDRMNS

In the case of Cc1ccc(COP(=O)(O)O)c(C=O)c1O [dAPLP], the “EPR of substrate-related radical with 4-thia-L-lysine” value is reported as “this spectrum obtained with dAPLP can be attributed to the corresponding S^•”.
